Reference: US6737383B1, “Herbicidal oxadiazolidines” (priority 1999, dated 2004)

Key:
rice = assay: Test B flood test rice; type: in vivo, Oryza sativa
How it was run: (§1)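 Each value is a visual injury score relative to controls, with 10 meaning complete control and 0 no effect. Evaluation took place twelve to sixteen days after the 2-leaf-stage plants were treated and kept in the greenhouse.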

sugar beet = assay: Test B pre/postemergence sugar beet; type: in vivo, Beta vulgaris
How it was run: (§2)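 Response is a visual 0-to-10 score relative to untreated plants, where 0 means no effect and 10 means complete control, taken twelve to sixteen days after application. Treatments went onto soil at planting and onto foliage of 1- to 4-leaf plants, using a surfactant-containing non-phytotoxic solvent.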

crabgrass = assay: Test B pre/postemergence crabgrass; type: in vivo, Digitaria sanguinalis
How it was run: as §2

surinam grass = assay: Test B pre/postemergence surinam grass; type: in vivo, Brachiaria decumbens
How it was run: as §2

cocklebur = assay: Test B pre/postemergence cocklebur; type: in vivo, Xanthium strumarium
How it was run: as §2

corn = assay: Test B pre/postemergence corn; type: in vivo, Zea mays
How it was run: as §2

wild oat = assay: Test B pre/postemergence wild oat; type: in vivo, Avena fatua
How it was run: as §2

morningglory = assay: Test B pre/postemergence morningglory; type: in vivo, Ipomoea hederacea
How it was run: as §2

blackgrass = assay: Test B pre/postemergence blackgrass; type: in vivo, Alopecurus myosuroides
How it was run: as §2

soybean = assay: Test B pre/postemergence soybean; type: in vivo, Glycine max
How it was run: as §2

rape = assay: Test B pre/postemergence rape; type: in vivo, Brassica napus
How it was run: as §2

smallflower flatsedge = assay: Test B flood test smallflower flatsedge; type: in vivo, Cyperus difformis
How it was run: as §1

purple nutsedge = assay: Test B pre/postemergence purple nutsedge; type: in vivo, Cyperus rotundus
How it was run: as §2

duck salad = assay: Test B flood test duck salad; type: in vivo, Heteranthera limosa
How it was run: as §1

pigweed = assay: Test B pre/postemergence pigweed; type: in vivo, Amaranthus retroflexus
How it was run: as §2

bamyardgrass = assay: Test B flood test barnyardgrass; type: in vivo, Echinochloa crus-galli
How it was run: as §1

velvetleaf = assay: Test B pre/postemergence velvetleaf; type: in vivo, Abutilon theophrasti
How it was run: as §2

wheat = assay: Test B pre/postemergence wheat; type: in vivo, Triticum aestivum
How it was run: as §2

bedstraw = assay: Test B pre/postemergence bedstraw; type: in vivo, Galium aparine
How it was run: as §2

giant foxtail = assay: Test B pre/postemergence giant foxtail; type: in vivo, Setaria faberii
How it was run: as §2

[1] = Rate 62 g/ha, flood test species, Pre-emergence, visual evaluation after twelve to sixteen days
[2] = Rate 125 g/ha, under heading Pre-emergence, flood test species, visual evaluation after twelve to sixteen days
[3] = Rate 250 g/ha, Pre-emergence (flood test species), scale 0 to 10, 0 is no effect, 10 is complete control
[4] = Rate 500 g/ha, Pre-emergence section of Table B, 0 to 10 scale (0 no effect, 10 complete control)
[5] = Postemergence, Rate 62 g/ha, scale 0 to 10, 0 is no effect, 10 is complete control
[6] = Postemergence, Rate 125 g/ha, scale of 0 to 10 where 0 is no effect and 10 is complete control
[7] = Postemergence, Rate 250 g/ha, scale of 0 to 10, 0 is no effect, 10 is complete control
[8] = Postemergence, Rate 500 g/ha, scale of 0 to 10 where 0 is no effect and 10 is complete control
[9] = Preemergence, Rate 62 g/ha, scale 0 to 10 (0 no effect, 10 complete control)
[10] = Preemergence, Rate 125 g/ha, scale of 0 to 10 where 0 is no effect and 10 is complete control
[11] = Preemergence, Rate 500 g/ha, scale of 0 to 10 where 0 is no effect and 10 is complete control

SMILES: CCC(C)n1c(=O)on(C(=O)N(c2ccccc2)C(C)C)c1=O (stereo not drawn) [Compound 612]
- Plant response rating, Rice (0 to 10 scale, 0 is no effect, 10 is complete control) (rice; [1]): 0
- Rice plant response rating (0 to 10 scale, 0 is no effect, 10 is complete control) (rice; [2]): 0
- Rice plant response rating (rice; [3]): 0
- Rice plant response rating (rice; [4]): 0
- Plant response rating, Sugarbeets (sugar beet; [5]): 0
- Plant response rating, Sugarbeets (sugar beet; [6]): 0
- Sugarbeets plant response rating (sugar beet; [7]): 0
- Plant response rating, Sugarbeets (sugar beet; [8]): 1
- Sugarbeets plant response rating (sugar beet; [9]): 3
- Sugarbeets plant response rating (sugar beet; [10]): 5
- Plant response rating, Sugarbeets (sugar beet; [11]): 7
- Plant response rating, Crabgrass (crabgrass; [5]): 4
- Plant response rating, Crabgrass (crabgrass; [6]): 8
- Crabgrass plant response rating (crabgrass; [7]): 9
- Plant response rating, Crabgrass (crabgrass; [8]): 10
- Crabgrass plant response rating (crabgrass; [9]): 10
- Crabgrass plant response rating (crabgrass; [10]): 10
- Plant response rating, Crabgrass (crabgrass; [11]): 10
- Plant response rating, B. signalgrass (surinam grass; [5]): 1
- Plant response rating, B. signalgrass (surinam grass; [6]): 3
- B. signalgrass plant response rating (surinam grass; [7]): 7
- Plant response rating, B. signalgrass (surinam grass; [8]): 9
- B. signalgrass plant response rating (surinam grass; [9]): 4
- B. signalgrass plant response rating (surinam grass; [10]): 7
- B. signalgrass plant response rating (0 to 10 scale, 0 is no effect, 10 is complete control) (surinam grass; Preemergence, Rate 250 g/ha): 10
- B. signalgrass plant response rating (surinam grass; [11]): 10
- Plant response rating, Cocklebur (cocklebur; [5]): 0
- Plant response rating, Cocklebur (cocklebur; [6]): 0
- Cocklebur plant response rating (cocklebur; [7]): 0
- Plant response rating, Cocklebur (cocklebur; [8]): 2
- Cocklebur plant response rating (cocklebur; [9]): 0
- Cocklebur plant response rating (cocklebur; [10]): 0
- Cocklebur plant response rating (0 to 10 scale) (cocklebur; Preemergence, Rate 250 g/ha): 0
- Plant response rating, Cocklebur (cocklebur; [11]): 0
- Plant response rating, Corn (corn; [5]): 0
- Plant response rating, Corn (corn; [6]): 0
- Corn plant response rating (corn; [7]): 0
- Plant response rating, Corn (corn; [8]): 0
- Corn plant response rating (corn; [9]): 0
- Corn plant response rating (corn; [10]): 3
- Corn plant response rating (0 to 10 scale) (corn; Preemergence, Rate 250 g/ha): 8
- Plant response rating, Corn (corn; [11]): 9
- Plant response rating, Wild oats (wild oat; [5]): 0
- Plant response rating, Wild oats (wild oat; [6]): 6
- Wild oats plant response rating (wild oat; [7]): 6
- Plant response rating, Wild oats (wild oat; [8]): 9
- Wild oats plant response rating (wild oat; [9]): 5
- Wild oats plant response rating (wild oat; [10]): 9
- Plant response rating, Wild oats (wild oat; [11]): 10
- Plant response rating, Morningglory (morningglory; [5]): 5
- Plant response rating, Morningglory (morningglory; [6]): 8
- Morningglory plant response rating (morningglory; [7]): 8
- Plant response rating, Morningglory (morningglory; [8]): 10
- Morningglory plant response rating (morningglory; [9]): 0
- Morningglory plant response rating (morningglory; [10]): 0
- Plant response rating, Morningglory (morningglory; [11]): 10
- Plant response rating, Blackgrass (blackgrass; [5]): 7
- Plant response rating, Blackgrass (blackgrass; [6]): 9
- Blackgrass plant response rating (blackgrass; [7]): 9
- Plant response rating, Blackgrass (blackgrass; [8]): 10
- Blackgrass plant response rating (blackgrass; [9]): 8
- Blackgrass plant response rating (blackgrass; [10]): 10
- Blackgrass plant response rating (0 to 10 scale) (blackgrass; Preemergence, Rate 250 g/ha): 10
- Blackgrass plant response rating (blackgrass; [11]): 10
- Plant response rating, Soybean (soybean; [5]): 4
- Plant response rating, Soybean (soybean; [6]): 5
- Soybean plant response rating (soybean; [7]): 7
- Plant response rating, Soybean (soybean; [8]): 8
- Soybean plant response rating (soybean; [9]): 0
- Soybean plant response rating (soybean; [10]): 0
- Plant response rating, Soybean (soybean; [11]): 3
- Plant response rating, Rape (rape; [5]): 0
- Plant response rating, Rape (rape; [6]): 0
- Rape plant response rating (rape; [7]): 0
- Plant response rating, Rape (rape; [8]): 7
- Rape plant response rating (rape; [9]): 0
- Rape plant response rating (rape; [10]): 3
- Plant response rating, Rape (rape; [11]): 10
- Plant response rating, S. Flatsedge (0 to 10 scale, 0 is no effect, 10 is complete control) (smallflower flatsedge; [1]): 0
- S. Flatsedge plant response rating (0 to 10 scale, 0 is no effect, 10 is complete control) (smallflower flatsedge; [2]): 0
- S. Flatsedge plant response rating (smallflower flatsedge; [3]): 0
- S. Flatsedge plant response rating (smallflower flatsedge; [4]): 0
- Plant response rating, Nutsedge (purple nutsedge; [5]): 0
- Plant response rating, Nutsedge (purple nutsedge; [6]): 0
- Nutsedge plant response rating (purple nutsedge; [7]): 0
- Plant response rating, Nutsedge (purple nutsedge; [8]): 2
- Nutsedge plant response rating (purple nutsedge; [9]): 0
- Nutsedge plant response rating (purple nutsedge; [10]): 0
- Plant response rating, Nutsedge (purple nutsedge; [11]): 3
- Plant response rating, Ducksalad (0 to 10 scale, 0 is no effect, 10 is complete control) (duck salad; [1]): 0
- Ducksalad plant response rating (0 to 10 scale, 0 is no effect, 10 is complete control) (duck salad; [2]): 0
- Ducksalad plant response rating (duck salad; [3]): 0
- Ducksalad plant response rating (duck salad; [4]): 0
- Plant response rating, Redroot pigweed (pigweed; [5]): 0
- Plant response rating, Redroot pigweed (pigweed; [6]): 2
- Redroot pigweed plant response rating (pigweed; [7]): 4
- Plant response rating, Redroot pigweed (pigweed; [8]): 7
- Redroot pigweed plant response rating (pigweed; [9]): 8
- Redroot pigweed plant response rating (pigweed; [10]): 10
- Plant response rating, Redroot pigweed (pigweed; [11]): 10
- Plant response rating, Barnyardgrass (0 to 10 scale, 0 is no effect, 10 is complete control) (bamyardgrass; [1]): 0
- Barnyardgrass plant response rating (0 to 10 scale, 0 is no effect, 10 is complete control) (bamyardgrass; [2]): 0
- Barnyardgrass plant response rating (bamyardgrass; [3]): 0
- Barnyardgrass plant response rating (bamyardgrass; [4]): 0
- Plant response rating, Velvetleaf (velvetleaf; [5]): 2
- Plant response rating, Velvetleaf (velvetleaf; [6]): 3
- Velvetleaf plant response rating (velvetleaf; [7]): 3
- Plant response rating, Velvetleaf (velvetleaf; [8]): 6
- Velvetleaf plant response rating (velvetleaf; [9]): 6
- Velvetleaf plant response rating (velvetleaf; [10]): 7
- Plant response rating, Velvetleaf (velvetleaf; [11]): 8
- Plant response rating, Wheat (wheat; [5]): 0
- Plant response rating, Wheat (wheat; [6]): 2
- Wheat plant response rating (wheat; [7]): 2
- Plant response rating, Wheat (wheat; [8]): 5
- Wheat plant response rating (wheat; [9]): 0
- Wheat plant response rating (wheat; [10]): 3
- Plant response rating, Wheat (wheat; [11]): 8
- Plant response rating, Bedstraw (bedstraw; [5]): 3
- Bedstraw plant response rating (bedstraw; [7]): 6
- Plant response rating, Bedstraw (bedstraw; [8]): 9
- Bedstraw plant response rating (bedstraw; [11]): 10
- Plant response rating, Giant foxtail (giant foxtail; [5]): 7
- Plant response rating, Giant foxtail (giant foxtail; [6]): 9
- Giant foxtail plant response rating (giant foxtail; [7]): 9
- Plant response rating, Giant foxtail (giant foxtail; [8]): 9
- Giant foxtail plant response rating (giant foxtail; [9]): 10
- Giant foxtail plant response rating (giant foxtail; [10]): 10
- Plant response rating, Giant foxtail (giant foxtail; [11]): 10
